{"source": "patent US20220117921A1", "about": "“PHARMACEUTICAL COMBINATIONS FOR THE TREATMENT OF PAIN” (IMUNEKS FARMA ILAC SANAYI VE TICARET A.S., priority 2018, published 2022)", "system": "female Albino Wistar rats", "test": "Hot plate test (heat induced pain model)", "format": "in vivo, rat", "conditions": "comparison between groups"}
{"smiles": "CC(C(=O)O)c1ccc(-c2ccccc2)c(F)c1", "note": "(stereo not shown) [FBP, Flurbiprofen]", "values": [{"measurement": "analgesic effect in the hot plate test (in words)", "value": "lowest analgesic effect compared to all the other groups except the placebo group"}]}
